One molecule from US20260355192A1, “PROPHYLACTIC OR THERAPEUTIC AGENT FOR PERIOSTIN-MEDIATED DISEASE AND PRURITUS ASSOCIATED THEREWITH” (SAGA UNIVERSITY, priority 2022, published 2026) can be followed below.

Experiment [1] concerns scratching behaviors in FADS mice. Nature of the experiment: Scratching behaviors in FADS mice upon repeated systemic administration of CP4715. The experiment is classed as in vivo, mouse (FADS, Nestin-cre/Ikk2ff). To be noted: at 1 week and 2 weeks after administration; 107.4 μmol/kg twice a day under the dorsal skin; Mann-Whitney's U-test vs diluent control; FIG. 1. The text has this:
Nestin-cre transgenic mice were crossed with IKK2^ff mice to prepare Nestin-cre/Ikk2^ff mice specifically lacking IKK2 in their facial skin fibroblasts (Nunomura S, et al. J Invest Dermatol. 139:1274-1283, 2019). These mice inevitably develop atopic dermatitis-like rash limited to the face and intense itchy symptoms, and were therefore designated as Facial Atopic Dermatitis with Scratching (FADS) mice. […] For evaluation of the prophylactic or therapeutic agent of the present invention, FADS mice at 3 to 4 weeks of age or older were used because of showing spontaneous scratching behaviors. It should be noted that in this Example section, the above compound of formula (I) (more particularly “CP4715”) was used as the prophylactic or therapeutic agent of the present invention.
FADS mice were acclimated for 20 minutes to the environment of a recording cage, and then recorded with a video camera. The recorded videos were replayed, and scratching behaviors were counted assuming that hind paw scratching to the face and the subsequent movement of toe licking or paw lowering to the ground were regarded as one cycle of scratching behavior. […]
At 1 week and 2 weeks after drug administration, the mice were recorded for 60 minutes and analyzed to calculate the number of scratchings per minute for evaluation. […]

Experiment [2] concerns neurons in the posterior horn surface of the spinal cord. The experiment is described as follows: In vivo extracellular recording from the posterior horn surface of the spinal cord in FADS mice (spontaneous firing). To be noted: 53.7 μmol/kg i.p.; FIG. 3. Details: species or system mouse (FADS). On the procedure:
In Vivo Extracellular Recording from the Posterior Horn Surface of the Spinal Cord in FADS Mice
FADS mice were administered intraperitoneally with 1.5 g/kg of urethane and anesthetized, followed by dorsal lumbar laminectomy. The first to sixth lumbar vertebrae were exposed, and each mouse was set on a stereotaxic apparatus. Under a microscope, the dural, arachnoidal and pial membranes were removed, and the spinal cord surface was warmed at 36±1 °C, followed by perfusion at 15 to 20 mL/min with an artificial cerebrospinal fluid (composition: NaCl (117 mM), KCl (3.6 mM), CaCl2) (2.5 mM), MgCl2 (1.2 mM), NaH2PO4 (1.2 mM), glucose (11 mM), NaHCO3 (25 mM)) saturated with 95% 02 to 5% CO2. Into the exposed spinal cord, a tungsten electrode (tip diameter: […], tip impedance: 9 to 12 MΩ) was inserted (latero-medial), and records were obtained from neurons in the posterior horn surface of the spinal cord.
CP4715 was dissolved at 89.5 mM in a diluent (physiological saline containing 50% DMSO and 89.5 mM hydrochloric acid), from which an amount corresponding to 53.7 μmol/kg per mouse was then taken and diluted with 0.3 mL of physiological saline, and then administered intraperitoneally (i.p.). 0.3 mL of physiological saline containing an equal amount of the diluent as calculated based on the body weight was administered as a control. When recorded from the spinal cord posterior horn of the FADS mice, neurons with spontaneous firing could be recorded. When the above control solution was first administered intraperitoneally, there was little change in the frequency of spontaneous firing during 30 minutes after administration.

In the case of `COc1cc(C(=O)NC[C@H](NS(=O)(=O)c2ccccc2)C(=O)O)ccc1N1CCC(NC2=NCCCN2)CC1` [CP4715, (S)-3-(3-methoxy-4-(4-((1,4,5,6-tetrahydropyrimidin-2-yl)amino)piperidin-1-yl)benzamido)-2-(phenylsulfonamido)propanoic acid], the “scratching behaviors (number of scratchings per minute)” value in experiment [1] is given as “significantly suppressed (P<0.05)”. Also, in experiment [2], the “time after administration at which firing returned to the initial frequency” value worked out at 60 min, the “time after administration at which the frequency of firing started to decrease” value came out at 20 min and the “time after administration at which the frequency of firing was most strongly suppressed” value worked out at 40 min.
